Measurements as given in ChEMBL document CHEMBL1147778, “Development and evaluation of a pharmacophore model for inhibitors of aldosterone synthase (CYP11B2)” (Bioorg Med Chem Lett, 2006).
pIC50: −log10 of the molar value.

Legend:
[1] = species: Homo sapiens; assay: Selectivity for human CYP11B1 over CYP11B2
[2] = molecular target: T1, Cytochrome P450 11B1, mitochondrial (Homo sapiens, UniProt P15538); assay: Inhibition of human CYP11B1 expressed in V79 hamster fibroblasts
T1 sequence (P15538 whole entry): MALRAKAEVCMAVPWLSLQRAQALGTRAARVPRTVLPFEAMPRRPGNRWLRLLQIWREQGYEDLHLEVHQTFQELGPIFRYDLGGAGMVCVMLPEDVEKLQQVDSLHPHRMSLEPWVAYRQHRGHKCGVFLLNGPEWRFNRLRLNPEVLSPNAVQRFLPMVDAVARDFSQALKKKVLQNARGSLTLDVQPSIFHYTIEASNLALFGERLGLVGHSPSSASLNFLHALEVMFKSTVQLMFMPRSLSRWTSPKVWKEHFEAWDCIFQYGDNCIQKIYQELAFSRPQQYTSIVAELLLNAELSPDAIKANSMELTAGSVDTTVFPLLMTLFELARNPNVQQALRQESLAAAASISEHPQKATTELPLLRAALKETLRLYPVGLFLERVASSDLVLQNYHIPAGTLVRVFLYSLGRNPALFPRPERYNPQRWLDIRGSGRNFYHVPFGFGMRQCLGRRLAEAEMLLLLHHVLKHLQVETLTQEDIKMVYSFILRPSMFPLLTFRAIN

[3] = molecular target: T2, Cytochrome P450 11B2, mitochondrial (Homo sapiens, UniProt P19099); assay: Inhibition of aldosterone synthase (CYP11B2) expressed in V79 hamster fibroblasts
T2 sequence (P19099 whole entry): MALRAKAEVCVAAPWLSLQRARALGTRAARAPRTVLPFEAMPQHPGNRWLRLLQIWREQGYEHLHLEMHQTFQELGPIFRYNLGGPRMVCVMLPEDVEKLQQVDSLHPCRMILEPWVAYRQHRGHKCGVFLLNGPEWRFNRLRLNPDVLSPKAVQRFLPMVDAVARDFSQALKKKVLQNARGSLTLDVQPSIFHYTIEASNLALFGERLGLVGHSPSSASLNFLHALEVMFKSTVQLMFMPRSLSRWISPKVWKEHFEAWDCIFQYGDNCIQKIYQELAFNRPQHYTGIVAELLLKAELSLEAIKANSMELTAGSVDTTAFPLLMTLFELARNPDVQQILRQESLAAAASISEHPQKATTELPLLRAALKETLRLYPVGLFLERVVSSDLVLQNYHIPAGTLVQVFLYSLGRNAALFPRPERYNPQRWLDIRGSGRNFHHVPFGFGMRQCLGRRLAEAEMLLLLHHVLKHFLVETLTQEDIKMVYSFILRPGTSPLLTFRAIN

Ratio IC50 [1]	pIC50 [2]	pIC50 [3]	SMILES
245	–	–	c1cncc(-c2ccc3cccc4c3c2CC4)c1
207	5.54	7.85	c1cncc(-c2ccc3c4c(cccc24)CC3)c1
